Consider two compounds from patent publication US20220120753A1, “METHOD FOR DETERMINING PROGNOSIS OF CANCER” (The University of Tokyo, priority 2018, published 2022).

Read-outs that look alike come from different tables or passages of the source.

Test [1] concerns ERα-dependent transcription. As to the kind of experiment: qPCR of ERα target gene transcripts (EBAG9, GREB1) in MCF-7 cells. The format is cell-based, human. The procedure: (§1) Using total RNA derived from individual cells recovered over time, qPCR was carried out. […] Using total RNA prepared from the treated cells, qPCR was carried out. […] Using the nucleus extract, immunoprecipitation and immunoblotting were carried out.
Using total RNA prepared from the cells over time, qPCR was carried out.
(§2) Total RNA was prepared from the cells treated with various drugs, and qPCR was carried out.
The cells were washed with PBS three times, and were then cultured in phenol red-non-added DMEM (supplemented with 5% charcoal-stripped FBS) for 72 hours.
(§3) Quantitative RT-PCR was carried out according to the method described in Johmura et al., Molecular Cell 55: 73-84, 2014. Total RNA was extracted using ISOGEN II (Wako), and using this as a template, cDNA was synthesized using SuperScript II cDNA synthesis kit (Invitrogen). PCR amplification was carried out in a 96-well optical reaction plate, using Power SYBR Green PCR Master Mix (Applied Biosystems). The relative expression ratio of individual genes was normalized with respect to the expression level of GAPDH.
On the technique in general: In qPCR the cycle at which signal appears reflects the starting amount.

Test [2] has as its system ERα complex with KDM4B and SRC-3. The procedure: as §1
(§4) The obtained cells were immunostained with anti-FLAG antibodies. Representative images are shown.
as §2
(§5) Immunoprecipitation and immunoblotting were carried out according to the method described in Johmura et al., Molecular Cell 55: 73-84, 2014. The cells were dissolved in a TBSN buffer (20 mM Tris-Cl (pH 8.0), 150 mM NaCl, 0.5% NP-40, 5 mM EGTA, 1.5 mM EDTA, and 0.5 mM Na3VO4). The obtained cell lysate was centrifuged at 4° C. at 15,000×g for 20 minutes, and was then used in immunoprecipitation using an antibody.
Regarding immunoprecipitation of ERα and KDM4B, a nuclear extract was prepared according to the method described in Hirokawa et al., Cancer Res. 74: 3880-3889, 2014. Cell pellets were suspended in buffer A (10 mM Hepes-KOH pH 7.9, 10 mM KCl, 1.5 mM MgCl2, 0.5 mM DTT, 0.5 mM PMSF, and protease inhibitor cocktail (Nakalai Tesque)) having five times the volume of the cell pellets, and the suspension was then incubated on ice for 5 minutes. Thereafter, the cells were centrifuged at 4° C. at 500×g for 5 minutes, and the obtained cell pellets were then suspended in buffer A having two times the volume of the cell pellets for homogenization. The homogenized cell suspension was centrifuged at 4° C. at 4,000×g for 5 minutes, and a cell nucleus was recovered in a precipitate. To the recovered nucleus, an equal amount of buffer B (20 mM Hepes-KOH pH 7.9, 600 mM KCl, 1.5 mM MgCl2, 0.2 mM EDTA, 25% glycerol, 0.5 mM DTT, 0.5 mM PMSF, and protease inhibitor cocktail) was added and suspended, and the obtained mixture was then blended at 4° C. for 30 minutes, using a rotator. The nuclear extract was centrifuged at 4° C. at 16,000×g for 15 minutes, and was then recovered in a supernatant. The nuclear extract was dialyzed against buffer C (20 mM Hepes-KOH pH 7.9, 100 mM KCl, 0.2 mM EDTA, 20% glycerol, 0.5 mM DTT, and 0.5 mM PMSF). After completion of the dialysis, the nuclear extract was centrifuged at 4° C. at 16,000×g for 30 minutes, and the remaining precipitate was then eliminated.
A protein (20 to 50 μg) was separated from the total cell lysate by SDS-PAGE, and was then transferred into a PVDF membrane (Millipore), which was then used in immunoblotting using various types of antibodies.

For test [3], the system named is FLAG-Fbxo22 binding to ERα. The method, then: as §5
In test [4] the test system is ERα. To be noted: U2OS cells, Fbxo22 not expressed. The procedure: as §4, §3
In test [5] the test system is CFP-LacER, YFP-SRC-1 and FLAG-KDM4B foci. To be noted: in the presence of E2 and 4-OHT. The procedure: as §4
U205-LacO-I-SceI-TetO cells were cultured in a glass bottom dish (Iwaki) on the stage of BZ-9000 (Keyence) equipped with an environmental chamber (Keyence). The microscopic image was analyzed with BZ-9000 software.
In order to immobilize ERα on a Lac operator array stably incorporated into living cells, using a CFP-tagged lac receptor-ERα chimeric protein (CFP-LacER), accumulation of YFP-SRC-1 and KDM4B in an ERα-immobilized position was examined.

The test system of test [6] is ERα. Kind of test: ChIP-Seq analysis of ERα binding in MCF-7 cells. The format is cell-based, human. To be noted: for ERα accumulation peaks detected: 2 hours, E2 line = E2 (10 nM), 4-OHT line = E2+4-OHT. The text has this: Thereafter, DNA was extracted using a DNA purification column.
Test [7] relates to MCF-7 cells. Kind of test: Colony formation assay, MCF-7 cells. The format is cell-based, human. The procedure:
Representative colony images (upper view) and the results of the assay are shown. […] Ki-67-positive and cleaved caspase 3-positive cells were counted, and the counted numbers were then normalized with respect to the cell nucleus in each section. *p<0.05, ***p<0.05. The cells (5×10^2) were seeded on a 6-well plate, and were then cultured for 2 weeks. Thereafter, colonies were immobilized with methanol/acetic acid (1:1) for 15 minutes, and were then stained in 20% methanol/PBS containing 0.4% trypan blue (Sigma) for 15 minutes, followed by counting.

The subject of test [8] is T47D cells. As to the kind of experiment: Colony formation assay, T47D cells. To be noted: Fbxo22-knocked-out T47D cells in the presence of E2 and 4-OHT, compared with control cells. The format is cell-based, human. The method, then:
The cells (5×10^2) were seeded on a 6-well plate, and were then cultured for 2 weeks. Thereafter, colonies were immobilized with methanol/acetic acid (1:1) for 15 minutes, and were then stained in 20% methanol/PBS containing 0.4% trypan blue (Sigma) for 15 minutes, followed by counting.

In test [9] the test system is T47D breast cancer cells. As to the kind of experiment: T47D cells transplanted into the mammary gland fat pad of NOD/Scid mice. The format is in vivo, mouse. To be noted: NOD/Scid mice with Fbxo22-knocked-out T47D cells treated with 4-OHT pellets, compared with mice with control cells. The procedure:
Representative colony images (upper view) and the results of the assay are shown. […] Ki-67-positive and cleaved caspase 3-positive cells were counted, and the counted numbers were then normalized with respect to the cell nucleus in each section. *p<0.05, ***p<0.05. […] Thereafter, the cells were treated with trypsin, were then suspended in PBS, and were then mixed with Matrigel (CORNING 354230) at a mixing ratio of 1:1. […] Six weeks later, the mice were euthanized, the tumor was then excised, and the size of the tumor was then measured. Thereafter, the tumor was fixed with formalin and was then embedded in paraffin, and an HE stain slide glass was produced. The size of a tumor was evaluated as follows: V=(length×width×height×0.5326) mm^3. All of the mice were fed under a specific pathogen-free environment, and were treated in accordance with Animal Experiment Guidelines, Graduate School of Medicine and Faculty of Medicine, The University of Tokyo.

For test [10], the system named is KDM4B forming a complex with ERα.
For test [11], the system named is ERα-positive/HER2-negative breast cancer. As to the kind of experiment: Relapse-free survival of ERα-positive/HER2-negative breast cancer patients stratified by Fbxo22. The format is in vivo, human. Conditions: patient group that had undergone the TAM treatment. From the text: FIGS. 9A and 9B show representative immunohistochemical staining images of a normal mammary gland (FIG. 9A), an Fbxo22-positive mammary gland of human breast cancer (FIG. 9B, left view), and an Fbxo22-negative mammary gland (FIG. 9B, right view). Scale bar: 20 μm. FIGS. 9C to 9F show Kaplan-Meier survival curves formed by stratifying ERα-positive/HER2-negative breast cancer (FIG. 9C), Luminal A (low Ki-67) breast cancer (FIG. 9D), lymph node metastasis-negative breast cancer (FIG. 9E), and tamoxifen-administered breast cancer (FIG. 9F) by the expression of Fbxo22. The P value and the hazard ratio were calculated according to a log-rank test.
Formalin fixing, paraffin embedding, core needle aspiration biopsy cytology panels, and the clinical data thereof, which were derived from 163 cases of continuously treated T2 (diameter: 2 to 5 cm) ERα-positive/HER-2-negative primary breast cancers, were obtained from patients who underwent surgery at St. Marianna University School of Medicine Hospital from 2005 to 2009. […] A tissue section was incubated with anti-Fbxo22 antibody (GTX117774, GeneTex) used as a primary antibody, which was diluted to 1:200, and was then detected using an HRP-polymer-labeled secondary antibody (Histofine Simple Stain MAX PO (multi), Nichirei, Japan). […] The Fbxo22-positive cells were evaluated according to a blind test conducted by two pathologist. […]

Test [12] relates to ERα-positive breast cancer. To be noted: cited from earlier work.

Sequence of CFP-LacER, YFP-SRC-1 and FLAG-KDM4B foci (P03372 311-547 limits assumed): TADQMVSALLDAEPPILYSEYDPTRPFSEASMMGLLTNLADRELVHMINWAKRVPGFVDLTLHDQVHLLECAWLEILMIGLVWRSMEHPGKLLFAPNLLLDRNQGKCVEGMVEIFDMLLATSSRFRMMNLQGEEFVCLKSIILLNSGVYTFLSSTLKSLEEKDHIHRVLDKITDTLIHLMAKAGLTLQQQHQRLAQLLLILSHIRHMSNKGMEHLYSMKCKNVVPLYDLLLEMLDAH
Sequence of ERα complex with KDM4B and SRC-3 (P03372 whole entry, one chain of several): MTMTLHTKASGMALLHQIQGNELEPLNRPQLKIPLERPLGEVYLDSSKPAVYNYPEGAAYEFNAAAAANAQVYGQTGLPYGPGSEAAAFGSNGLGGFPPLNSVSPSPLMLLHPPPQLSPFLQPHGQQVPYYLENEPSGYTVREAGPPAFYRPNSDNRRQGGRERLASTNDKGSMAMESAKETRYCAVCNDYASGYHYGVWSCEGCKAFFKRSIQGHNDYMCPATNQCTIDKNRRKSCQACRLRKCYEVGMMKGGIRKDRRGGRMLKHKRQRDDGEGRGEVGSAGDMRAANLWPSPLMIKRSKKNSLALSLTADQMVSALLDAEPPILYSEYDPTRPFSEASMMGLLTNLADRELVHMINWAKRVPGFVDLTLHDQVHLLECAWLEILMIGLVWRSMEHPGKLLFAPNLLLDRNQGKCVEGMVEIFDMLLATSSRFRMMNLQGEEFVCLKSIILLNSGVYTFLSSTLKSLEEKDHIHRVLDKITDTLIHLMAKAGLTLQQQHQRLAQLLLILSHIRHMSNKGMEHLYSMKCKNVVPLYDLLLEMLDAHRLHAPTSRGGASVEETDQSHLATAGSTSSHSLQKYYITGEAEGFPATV
Sequence of FLAG-Fbxo22 binding to ERα (P03372 whole entry): as the sequence (P03372 whole entry, one chain of several) above
Sequence of KDM4B forming a complex with ERα (P03372 whole entry, one chain of several): as above

For 4-hydroxytamoxifen [4-OHT], in test [1] (Fbxo22-depleted MCF-7 cells), the “antagonistic activity of 4-OHT on transcription of EBAG9 and GREB1” value is on record as “suppressed”. The “time after addition of 4-OHT at which transcript levels of GREB1 and EBAG1 became minimum” value in test [1] (MCF-7, E2-depleted 72 h, E2 10 nM, 4-OHT 100 nM added 6 hours after E2) was “Six”. In [1] (control MCF-7 cells stimulated by E2, treated with 4-OHT), the “transcription of EBAG9 and GREB1” value is “strongly suppressed”. In addition, the “cofactor dynamics (KDM4B/SRC-3 dissociation, N-CoR interaction with ERα)” value in test [2] (Fbxo22-depleted MCF-7 cells, E2 then 4-OHT) is “not observed”. Moreover, the “complex of ERα with KDM4B and SRC-3” value in test [2] (control MCF-7 cells stimulated by E2, then 4-OHT) is on record as “dissociated”. Also, the “FLAG-Fbxo22 binding to ERα” value in [3] is recorded as “recovered (increased)”. The “antagonistic activity of 4-OHT” value in test [4] (wild-type ERα expressed, stimulated by E2) is “suppressed”; in test [4] (Δ44 ERα expressed), “observed”. The “colocalization of FLAG-KDM4B with CFP-LacER and YFP-SRC-1” value is given as “colocalized” in test [5] (Fbxo22-depleted cells) and “not observed” in test [5] (control cells). In addition, the figures for the “ERα accumulation peaks detected” value in [6] (Fbxo22-depleted MCF-7 cells) and in test [6] (wild-type/control MCF-7 cells) were 19,924 and 26,751, respectively. Further, the “interaction of ERα with a target region” value in [6] (MCF-7 cells, E2+4-OHT versus E2) is recorded as “does not affect”. For the same compound, the “accumulation of ERα in the promoter regions of GREB1 and IGFBP4 genes” value in test [6] (control and Fbxo22-depleted MCF-7 cells, E2 line = E2, 4-OHT line = E2+4-OHT) was “maintained”. Also, the “proliferation-suppressing effect of 4-OHT” value in test [7] (Fbxo22-depleted MCF-7 cells) is “reduced”; in test [7] (Fbxo22-depleted MCF-7 cells with Fbxo22 re-expressed (FLAG-Fbxo22)), “recovered”. Besides, in test [7] (control MCF-7 cells, E2 10 nM, 4-OHT 100 nM), the “proliferation (colony formation) in the presence of E2” value is recorded as “completely suppressed”. Besides, the colony formation result in test [8] was “significantly promoted”. Besides, the “tumor growth (tumor volume)” value in test [9] is “clear increase”. In addition, in [10], the “ubiquitination of KDM4B forming a complex with ERα” value is “recovered”.
Turning to `CC/C(=C(\c1ccccc1)c1ccc(OCCN(C)C)cc1)c1ccccc1` [TAM, Tamoxifen], the “prognosis (relapse-free survival) of Fbxo22-negative breast cancer” value in test [11] was “extremely poor prognosis”. Besides, the “reduction of annual breast cancer mortality rate” value in test [12] (TAM therapy) is on record as “approximately 30%”. Also, the “early breast cancer patients with a recurrence within 15 years” value in test [12] (patients treated by TAM) is “approximately 25%”.
